Measured values taken from patent US20160128951A1, “PHARMACEUTICAL COMPOSITIONS OF FINGOLIMOD” (AIZANT DRUG RESEARCH SOLUTIONS PVT LTD, priority 2013, published 2016).

Test: Stability study (impurities) at 40° C./75% RH for one week
Type: physicochemical
Experimental: Stability study was conducted for active ingredient, compositions of the present invention and comparative composition. The study was conducted at 40° C./75% RH for one week.

[1] = After one week at 40° C./75% RH, Sample (API)

- Impurity 1 [1]: 0.05 % w/w
- Total Impurities [1]: 0.05 % w/w
- Impurity 1 (Initial, Sample): 0.05 % w/w
- Total Impurities (Initial, Sample): 0.05 % w/w
Structure (SMILES): CCCCCCCCc1ccc(CCC(N)(CO)CO)cc1.Cl [API, 2-amino-2-[2-(4-octylphenyl)ethyl]-propane-1,3-diol]
